According to US20100197610A1, “FRUCTOSE 1, 6 BISPHOSPHATE - A NOVEL ANTICONVULSANT DRUG” (Baylor College of Medicine, priority 2007, published 2010):

Assay: FDP levels in blood, brain and peripheral tissues after intraperitoneal administration
Format: in vivo, Sprague-Dawley rats
Procedure: Adult male Sprague-Dawley rats (170-220 g) were used to determine the kinetics of fructose-1,6-diphosphate (FDP). Levels of FDP were determined in blood and tissue samples as previously described (Gerhard, Methods of Enzymatic Analysis, Vol VI, Ed. Bergmeyer, H U, Academic Press NY, pp. 342-350). All chemicals and enzymes for the assay were obtained from Sigma Chemical Co (St. Louis Mo.). Animals were administered a single dose of 0.5 g kg-1 FDP (250 mg ml-1 dissolved in 0.1M phosphate buffered saline, pH 7). In vivo studies utilized the dicalcium salt of FDP, which has a purity of ˜70%. […] At the designated time, animals were anesthetized with 1 g kg-1 urethane. After deep anesthesia, whole blood was obtained from a cardiac puncture. One ml of whole blood was added to 5 ml of perchloric acid ([…]) and mixed. After centrifugation at 3,500 rev min-1 for 10 min at 4° C., the supernatant was removed and set aside. The sediment was re-suspended in 1 ml of the perchloric acid solution and 1 ml of distilled water and centrifuged. The resulting supernatant was combined with the first one and the pH was adjusted to 3.5 with potassium carbonate (5 mol l-1). The final volume was brought to 7 ml and the solution was allowed to sit in ice for 15 min. The supernatant was used for determination of FDP levels.
Immediately after removal of the whole blood sample, the rat was perfused through the heart with ice-cold 0.01M phosphate buffered saline. Tissue samples from liver, kidney, skeletal muscle (from thigh) and intra-abdominal fat were obtained and then the brain was removed and dissected into hippocampus, cerebral cortex, cerebellum and rest of brain. […] All tissue samples were weighed and then homogenized in 5 ml of ice-cold perchloric acid (0.6 mol l-1) as quickly as possible. The homogenates were then treated was described above for whole blood.
Actual levels of FDP were determined by monitoring absorbance of reduced nicotinamide adenine dinucleotide (NADH) and treating the sample with aldolase (EC 4.1.2.13, 45 units mg-1 diluted 1:27 with distilled water), the enzyme which cleaves FDP into dihydroxyacetone phosphate (DAP) and D-glyceraldehyde 3-phosphate (GAP). DAP and GAP are interconverted by the enzyme triosephosphate isomerase (TIM, EC 5.3.3.1, 5290 units mg-1 diluted 1:120 with distilled water). Glycerol-3-phosphate dehydrogenase (GDH, EC 1.1.1.8, 252 units mg-1 diluted 1:100 with distilled water) catalyzes the reduction of DAP by NADH. For the FDP measurements, 1.5 ml of tetraethyl ammonium buffer (TEA, 0.4 mol l-1, pH 7.6 with EDTA 40 mmol l-1) was added to 1 ml of the sample in a 4 ml cuvette. Then 0.1 ml of 5 mmol l-1 β-NADH, 0.4 ml of distilled water and 0.01 ml of the enzymes TIM and GDH were added and the cuvette inverted to mix the solutions. After 5 min the absorbance was read 3 times at 340 nm, each reading 3 min apart. The average of these readings is the initial absorbance (Ai). This step removes any DAP or GAP in the sample and determines the baseline absorbance. Aldolase (0.01 ml) was then added and mixed to cleave FDP into DAP and GAP. Nine minutes after addition of the aldolase, the final absorbance (Af) was determined by 3 readings at 340 nm, each 6 minutes apart. The concentration of FDP in the sample was proportional to the difference in the initial and final absorbance. Two moles of NADH are oxidized for each mole of FDP. Blanks and a FDP standard sample were run in parallel with every assay. Each blank had 1.6 ml of the TEA buffer, 1.4 ml water and the mixture of TIM and GDH. For the positive control, the sample was replaced with 1 ml of a solution containing 200 μg FDP per ml of phosphate buffered saline. The trisodium salt of FDP, with a purity of >98%, was utilized for all of the positive control samples and for the standard curves. Levels of FDP in blood were determined per ml, while levels in tissue samples were determined as a function of tissue weight. […]

For O=C(COP(=O)(O)O)[C@@H](O)[C@H](O)[C@H](O)COP(=O)(O)O [F1,6BP, Fructose-1,6-bisphosphate], the “FDP level in the brain at 12 hours vs levels at 1 and 2 hours” value (0.5 g kg-1 ip) was “not significantly different”, the “time of peak FDP levels in blood” value (0.5 g kg-1 ip) was 2 h and the “time of peak FDP levels in the brain” value (0.5 g kg-1 ip) was 1 to 2 h. For the same compound, the “FDP levels in blood vs control” value (0.5 g kg-1 ip, 1 hour) was “significant increase”, the “FDP level in blood compared to control values” (0.5 g kg-1 ip, 12 hours) was “significantly elevated” and the “FDP level in blood compared to the peak levels at 2 hours” value (0.5 g kg-1 ip, 12 hours) was “significantly decreased”. For the same compound, the “FDP levels in liver, kidney, muscle and fat” value (0.5 g kg-1 ip, 12 hours) was “returned to near baseline”, the “FDP levels in the brain vs control” value (0.5 g kg-1 ip, 36 hours) was “remained significantly elevated” and the “FDP levels in blood” value (0.5 g kg-1 ip, by 6 hours) was “fallen more than halfway back to baseline”. For the same compound, the “increase in FDP at 1 hour, all tissues measured” value (0.5 g kg-1 ip, liver, kidney, skeletal muscle and fat, n=6) was “around 0.2 mg g-1”, the “increase in FDP at 1 hour, kidney” value (0.5 g kg-1 ip, n=6) was 0.26 mg/g and the “increase in FDP at 1 hour, liver” value (0.5 g kg-1 ip, n=6) was 0.17 mg/g. The “increase in FDP at 1 hour, muscle” value (0.5 g kg-1 ip, n=6) was 0.17 mg/g, the “time at which an increase of FDP levels in blood was first seen” value (single dose 0.5 g kg-1 ip) was 30 min and the “time out to which FDP levels in blood remained elevated” value (single dose 0.5 g kg-1 ip) was 72 h.
